Experimental findings from patent US11945798B2, “Substituted aminopyridine compounds as EGFR inhibitors” (YUHAN CORPORATION, priority 2021, dated 2024) are described below.

The structures appear in SMILES notation. Like-named read-outs stand apart in the source and are kept apart here. Bounds are passed on as bounds.

Assay [1] deals with EGFR wildtype (WT) (Homo sapiens, UniProt P00533). Put plainly: Biochemical EGFR kinase assay (Lance Ultra TR-FRET), wildtype. In outline:
(§1)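 Step 1: compound in kinase buffer, 0.003–10 μM. Step 2: kinase reaction 1 h at room temperature. Step 4: TR-FRET read at 615/665 nm; IC50 calculated.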

For assay [2], the target named is EGFR L858R/C797S (Homo sapiens, UniProt P00533, C797S/L858R). Put plainly: Biochemical EGFR kinase assay (Lance Ultra TR-FRET), L858R/C797S. In a few lines: as §1
For orientation: In TR-FRET formats the signal depends on donor and acceptor labels being close together.

In assay [3] the target is EGFR L858R/T790M/C797S (Homo sapiens, UniProt P00533, C797S/L858R/T790M). Description: Biochemical EGFR kinase assay (Lance Ultra TR-FRET), L858R/T790M/C797S. In a few lines: as §1
Assay [4] addresses EGFR del19/T790M/C797S (Homo sapiens, UniProt P00533, C797S/DEL746-750/T790M). Put plainly: Biochemical EGFR kinase assay (Lance Ultra TR-FRET), del19/T790M/C797S. In outline:
as §1

Assay [5] has as its target EGFR del19/C797S (Homo sapiens, UniProt P00533, C797S/DEL746-750). Put plainly: Biochemical EGFR kinase assay (Lance Ultra TR-FRET), del19/C797S. In a few lines: as §1

Chain of EGFR L858R/T790M/C797S (P00533 25-1210 T790M/C797S/L858R): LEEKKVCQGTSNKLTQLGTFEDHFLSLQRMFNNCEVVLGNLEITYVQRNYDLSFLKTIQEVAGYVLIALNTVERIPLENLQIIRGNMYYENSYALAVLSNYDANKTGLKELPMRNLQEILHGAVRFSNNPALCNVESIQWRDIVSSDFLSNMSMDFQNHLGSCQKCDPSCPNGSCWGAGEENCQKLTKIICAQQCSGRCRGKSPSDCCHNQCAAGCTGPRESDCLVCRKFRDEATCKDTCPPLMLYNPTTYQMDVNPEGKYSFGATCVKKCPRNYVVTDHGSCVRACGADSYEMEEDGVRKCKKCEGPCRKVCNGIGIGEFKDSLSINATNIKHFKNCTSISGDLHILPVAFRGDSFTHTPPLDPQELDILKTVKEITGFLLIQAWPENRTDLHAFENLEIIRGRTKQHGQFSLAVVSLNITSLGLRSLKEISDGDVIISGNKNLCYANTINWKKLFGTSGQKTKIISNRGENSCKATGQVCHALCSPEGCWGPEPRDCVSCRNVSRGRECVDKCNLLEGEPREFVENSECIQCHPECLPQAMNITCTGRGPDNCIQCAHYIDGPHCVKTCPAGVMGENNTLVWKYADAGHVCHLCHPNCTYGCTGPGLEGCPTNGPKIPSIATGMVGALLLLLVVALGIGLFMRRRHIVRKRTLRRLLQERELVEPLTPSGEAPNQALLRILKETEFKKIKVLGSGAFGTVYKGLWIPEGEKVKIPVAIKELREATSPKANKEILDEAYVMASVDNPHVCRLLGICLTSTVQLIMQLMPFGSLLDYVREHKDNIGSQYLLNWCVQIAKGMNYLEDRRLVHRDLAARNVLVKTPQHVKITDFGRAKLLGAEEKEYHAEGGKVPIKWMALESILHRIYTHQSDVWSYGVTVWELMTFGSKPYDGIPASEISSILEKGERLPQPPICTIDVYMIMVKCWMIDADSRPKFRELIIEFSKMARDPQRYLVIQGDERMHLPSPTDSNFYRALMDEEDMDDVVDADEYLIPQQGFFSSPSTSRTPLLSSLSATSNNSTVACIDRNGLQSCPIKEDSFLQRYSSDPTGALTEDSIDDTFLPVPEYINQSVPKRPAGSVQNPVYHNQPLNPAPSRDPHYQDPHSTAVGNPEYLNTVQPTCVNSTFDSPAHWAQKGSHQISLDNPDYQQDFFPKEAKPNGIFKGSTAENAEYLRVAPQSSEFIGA
Chain of EGFR wildtype (WT) (P00533 25-1210): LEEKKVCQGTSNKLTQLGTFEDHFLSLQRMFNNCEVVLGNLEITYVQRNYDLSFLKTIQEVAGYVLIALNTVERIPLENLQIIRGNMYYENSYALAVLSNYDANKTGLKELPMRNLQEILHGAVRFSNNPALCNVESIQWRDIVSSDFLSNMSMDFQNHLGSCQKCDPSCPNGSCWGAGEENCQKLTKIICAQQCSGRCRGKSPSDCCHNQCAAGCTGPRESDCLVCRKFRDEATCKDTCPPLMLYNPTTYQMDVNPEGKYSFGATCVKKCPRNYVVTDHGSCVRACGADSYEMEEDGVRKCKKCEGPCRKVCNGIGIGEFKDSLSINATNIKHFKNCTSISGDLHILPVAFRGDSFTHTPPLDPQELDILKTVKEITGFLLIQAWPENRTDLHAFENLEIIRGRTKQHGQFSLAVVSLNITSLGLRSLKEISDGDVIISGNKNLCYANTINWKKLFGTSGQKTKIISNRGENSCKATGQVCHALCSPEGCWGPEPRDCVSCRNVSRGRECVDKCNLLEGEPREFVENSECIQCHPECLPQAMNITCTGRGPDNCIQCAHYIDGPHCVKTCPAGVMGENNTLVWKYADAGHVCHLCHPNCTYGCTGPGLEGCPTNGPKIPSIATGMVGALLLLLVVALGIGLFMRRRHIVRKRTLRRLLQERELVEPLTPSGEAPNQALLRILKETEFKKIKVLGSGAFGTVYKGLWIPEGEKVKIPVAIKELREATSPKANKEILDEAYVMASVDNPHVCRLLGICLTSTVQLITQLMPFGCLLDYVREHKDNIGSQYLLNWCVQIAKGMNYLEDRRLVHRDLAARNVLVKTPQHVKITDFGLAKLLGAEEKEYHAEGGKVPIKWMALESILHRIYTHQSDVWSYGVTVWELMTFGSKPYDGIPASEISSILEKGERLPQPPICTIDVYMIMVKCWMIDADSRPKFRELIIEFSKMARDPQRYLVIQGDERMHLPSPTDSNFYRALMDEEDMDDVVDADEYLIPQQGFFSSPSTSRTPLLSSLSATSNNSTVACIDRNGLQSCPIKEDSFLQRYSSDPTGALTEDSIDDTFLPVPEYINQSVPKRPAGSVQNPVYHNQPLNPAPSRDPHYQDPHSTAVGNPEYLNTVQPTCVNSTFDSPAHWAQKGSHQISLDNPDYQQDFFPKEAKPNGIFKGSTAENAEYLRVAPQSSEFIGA
Chain of EGFR del19/T790M/C797S (P00533 with tags, fused parts or gaps DEL746-750/T790M/C797S): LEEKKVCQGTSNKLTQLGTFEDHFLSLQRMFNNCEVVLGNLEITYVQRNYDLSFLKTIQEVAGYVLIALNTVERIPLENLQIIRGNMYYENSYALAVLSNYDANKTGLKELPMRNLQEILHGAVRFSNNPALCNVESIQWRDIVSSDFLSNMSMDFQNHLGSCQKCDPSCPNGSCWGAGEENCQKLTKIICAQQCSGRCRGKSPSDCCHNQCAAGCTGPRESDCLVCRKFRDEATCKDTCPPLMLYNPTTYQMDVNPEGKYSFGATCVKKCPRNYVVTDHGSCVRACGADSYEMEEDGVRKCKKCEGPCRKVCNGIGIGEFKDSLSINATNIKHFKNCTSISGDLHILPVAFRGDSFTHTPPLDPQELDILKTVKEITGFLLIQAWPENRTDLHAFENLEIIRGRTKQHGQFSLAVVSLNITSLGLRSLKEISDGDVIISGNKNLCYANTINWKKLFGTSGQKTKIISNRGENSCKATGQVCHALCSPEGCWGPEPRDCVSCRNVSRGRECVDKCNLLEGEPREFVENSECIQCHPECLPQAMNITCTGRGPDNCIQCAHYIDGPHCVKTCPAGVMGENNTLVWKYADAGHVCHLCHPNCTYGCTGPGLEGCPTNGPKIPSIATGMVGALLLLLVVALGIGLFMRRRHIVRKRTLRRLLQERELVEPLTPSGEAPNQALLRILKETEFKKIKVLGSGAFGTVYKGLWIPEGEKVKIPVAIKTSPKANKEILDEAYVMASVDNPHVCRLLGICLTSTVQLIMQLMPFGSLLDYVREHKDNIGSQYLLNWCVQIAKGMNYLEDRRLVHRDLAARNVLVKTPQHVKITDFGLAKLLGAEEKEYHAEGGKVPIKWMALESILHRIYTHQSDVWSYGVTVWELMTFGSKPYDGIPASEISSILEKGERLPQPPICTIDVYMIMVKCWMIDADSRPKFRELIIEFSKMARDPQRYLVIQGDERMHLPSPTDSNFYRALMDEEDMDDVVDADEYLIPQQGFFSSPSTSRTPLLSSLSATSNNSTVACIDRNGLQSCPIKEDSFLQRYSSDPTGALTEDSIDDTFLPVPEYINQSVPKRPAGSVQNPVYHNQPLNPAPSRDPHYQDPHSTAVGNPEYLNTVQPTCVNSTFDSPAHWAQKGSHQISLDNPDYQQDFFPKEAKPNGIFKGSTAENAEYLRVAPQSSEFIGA
Chain of EGFR L858R/C797S (P00533 25-1210 C797S/L858R): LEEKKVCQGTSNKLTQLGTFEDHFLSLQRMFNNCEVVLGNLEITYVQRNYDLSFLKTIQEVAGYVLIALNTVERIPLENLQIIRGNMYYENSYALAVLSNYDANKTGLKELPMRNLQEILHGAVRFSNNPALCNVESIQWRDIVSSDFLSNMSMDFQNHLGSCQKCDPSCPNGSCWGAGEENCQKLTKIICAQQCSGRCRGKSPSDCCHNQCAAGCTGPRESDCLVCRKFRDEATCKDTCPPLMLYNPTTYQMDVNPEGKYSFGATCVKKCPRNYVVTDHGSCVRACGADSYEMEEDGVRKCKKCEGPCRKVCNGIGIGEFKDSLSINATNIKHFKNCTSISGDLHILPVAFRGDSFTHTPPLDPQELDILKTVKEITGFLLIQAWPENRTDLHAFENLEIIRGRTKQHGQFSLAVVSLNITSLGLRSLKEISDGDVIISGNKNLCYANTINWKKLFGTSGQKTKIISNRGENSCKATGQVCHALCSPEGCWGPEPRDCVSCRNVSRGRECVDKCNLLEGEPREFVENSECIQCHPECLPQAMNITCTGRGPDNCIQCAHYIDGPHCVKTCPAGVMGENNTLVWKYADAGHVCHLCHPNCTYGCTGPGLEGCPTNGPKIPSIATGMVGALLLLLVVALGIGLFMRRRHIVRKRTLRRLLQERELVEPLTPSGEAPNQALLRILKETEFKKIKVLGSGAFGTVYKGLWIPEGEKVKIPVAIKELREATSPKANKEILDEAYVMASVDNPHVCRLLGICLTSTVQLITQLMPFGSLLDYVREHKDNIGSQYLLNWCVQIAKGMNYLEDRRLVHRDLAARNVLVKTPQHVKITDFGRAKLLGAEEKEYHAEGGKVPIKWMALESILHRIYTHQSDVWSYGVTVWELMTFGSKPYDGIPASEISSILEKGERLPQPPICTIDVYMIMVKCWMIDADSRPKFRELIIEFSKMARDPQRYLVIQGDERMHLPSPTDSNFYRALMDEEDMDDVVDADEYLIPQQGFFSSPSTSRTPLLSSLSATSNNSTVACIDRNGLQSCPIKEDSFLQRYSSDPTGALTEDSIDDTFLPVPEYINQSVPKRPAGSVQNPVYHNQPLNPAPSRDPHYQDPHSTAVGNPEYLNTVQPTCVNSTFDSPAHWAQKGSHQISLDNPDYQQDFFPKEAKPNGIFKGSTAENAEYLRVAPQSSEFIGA

Consider `CC(C)(CO)CNc1cc(Nc2ccnc(-c3cnn(S(=O)(=O)C4CC4)c3)n2)ncc1C(=O)C1CC1` [Example 28, Cyclopropyl(6-((2-(1-(cyclopropylsulfonyl)-1H-pyrazol-4-yl)pyrimidin-4-yl)amino)-4-((3-hydroxy-2,2-dimethylpropyl)amino)pyridin-3-yl)methanone], for which the IC50 in assay [1] (IC50 WT (nM) 100 μM ATP, 100 μM ATP) is over 10000 nM; in assay [2] (IC50 L858R/C797S (nM) 100 μM ATP, 100 μM ATP) it was 234 nM; in assay [3] (IC50 L858R/T790M/C797S (nM) 100 μM ATP, 100 μM ATP), 32.1 nM; in assay [4] (IC50 del19/T790M/C797S (nM) 100 μM ATP, 100 μM ATP), 2.6 nM; in assay [5] (IC50 del19/C797S (nM) 100 μM ATP, 100 μM ATP), 176 nM.

Turning to `CN(C)C[C@H]1CC[C@H](COc2cc(Nc3ccnc(-c4cnn(S(=O)(=O)C5CC5)c4)n3)ncc2C(=O)C2CC2)CC1` [Example 66, Cyclopropyl(6-((2-(1-(cyclopropylsulfonyl)-1H-pyrazol-4-yl)pyrimidin-4-yl)amino)-4-(((1r,4r)-4-((dimethylamino)methyl)cyclohexyl)methoxy)pyridin-3-yl)methanone], the IC50 in assay [1] (Km ATP, read-out: IC50 WT (nM) Km ATP) is 148 nM; in assay [2] (Km ATP, read-out: IC50 L858R/C797S (nM) Km ATP), 101 nM; in assay [3] (Km ATP, read-out: IC50 L858R/T790M/C797S (nM) Km ATP) it was 0.4 nM; in assay [4] (Km ATP, read-out: IC50 del19/T790M/C797S (nM) Km ATP), 0.1 nM; in assay [5] (Km ATP, read-out: IC50 del19/C797S (nM) Km ATP) it was 11.1 nM.
